The source of these data is the supplement of paper PMC10307832.

Experiment in all cases: relative viability (nuclei count vs DMSO), 5 days (fraction); higher = more cells survive
Compound in the assay “Veliparib + Foretinib”: C[C@]1(c2nc3c(C(N)=O)cccc3[nH]2)CCCN1 [Veliparib] + COc1cc2c(Oc3ccc(NC(=O)C4(C(=O)Nc5ccc(F)cc5)CC4)cc3F)ccnc2cc1OCCCN1CCOCC1 [Foretinib] (partner 0.25 µM)
In outline:
(§1)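 Lung cancer cell lines in 1536-well plates were dosed by pin tool the day after seeding, either with one drug alone or with a fixed anchor-drug dose plus five library-drug doses (not always all listed) in √10 steps. After 5 days, cells were fixed and their nuclei stained in one step (final 0.05% Triton X-100, 1% formaldehyde, 1 ug/ml Hoechst), then counted on 4× images. Relative viability is the nuclei count in treated wells divided by that in vehicle wells. Values are medians of duplicate plates.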

Compound in assay [1]: COC1=CC=C(C=C1)CN2C=CC3=C2C=C(C=C3)C(=O)NO + Cc1cc(Nc2cc(N3CCN(C)CC3)nc(Sc3ccc(NC(=O)C4CC4)cc3)n2)n[nH]1 [Tozasertib] (partner 0.1 µM)
The method, boiled down:
as §1

Compound in the assay “Veliparib + Bortezomib”: C[C@]1(c2nc3c(C(N)=O)cccc3[nH]2)CCCN1 [Veliparib] + CC(C)C[C@H](NC(=O)[C@H](Cc1ccccc1)NC(=O)c1cnccn1)B(O)O [Bortezomib] (partner 0.002 µM)
In outline: as §1

Compound in the assay “Veliparib + Linsitinib”: C[C@]1(c2nc3c(C(N)=O)cccc3[nH]2)CCCN1 [Veliparib] + C[C@]1(O)C[C@@H](c2nc(-c3ccc4ccc(-c5ccccc5)nc4c3)c3c(N)nccn32)C1 [Linsitinib] (partner 1 µM)
In outline: as §1

With PC-3 [JPC-3], the relative viability in the assay with Veliparib + Foretinib (first compound 0.02 µM) turned out to be 1.01; with Veliparib + Foretinib (first compound 0.06325 µM) it was 1.06; with Veliparib + Foretinib (first compound 0.2 µM), 0.968; with Veliparib + Foretinib (first compound 0.6325 µM), 0.975; in the assay with Veliparib + Foretinib (first compound 2 µM), 0.983; in assay [1] (first compound 0.08 µM) it was 0.861. In addition, the relative viability in assay [1] (first compound 0.253 µM) was 0.912; in assay [1] (first compound 0.8 µM) it was 0.921; in assay [1] (first compound 2.53 µM), 0.88; in assay [1] (first compound 8 µM) it was 0.908; with Veliparib + Bortezomib (first compound 0.02 µM), 0.821; with Veliparib + Bortezomib (first compound 0.06325 µM), 0.789. Moreover, the relative viability with Veliparib + Bortezomib (first compound 0.2 µM) amounted to 0.85; with Veliparib + Bortezomib (first compound 0.6325 µM), 0.815; with Veliparib + Bortezomib (first compound 2 µM), 0.785; with Veliparib + Linsitinib (first compound 0.02 µM) it was 0.929; with Veliparib + Linsitinib (first compound 0.06325 µM), 0.921; with Veliparib + Linsitinib (first compound 0.2 µM), 0.917. Moreover, the relative viability with Veliparib + Linsitinib (first compound 0.6325 µM) is 0.883; with Veliparib + Linsitinib (first compound 2 µM), 0.972.

Regarding PC-14, the relative viability with Veliparib + Foretinib (first compound 0.02 µM) amounted to 0.965; in the assay with Veliparib + Foretinib (first compound 0.06325 µM), 0.939; with Veliparib + Foretinib (first compound 0.2 µM), 0.999; with Veliparib + Foretinib (first compound 0.6325 µM), 0.922; in the assay with Veliparib + Foretinib (first compound 2 µM), 0.923; in assay [1] (first compound 0.08 µM), 0.302. For the same cell line, the relative viability in assay [1] (first compound 0.253 µM) is 0.548; in assay [1] (first compound 0.8 µM), 0.561; in assay [1] (first compound 2.53 µM), 0.638; in assay [1] (first compound 8 µM), 0.486; with Veliparib + Bortezomib (first compound 0.02 µM), 0.865; with Veliparib + Bortezomib (first compound 0.06325 µM), 0.807. The relative viability turned out to be 0.795 with Veliparib + Bortezomib (first compound 0.2 µM); 0.714 with Veliparib + Bortezomib (first compound 0.6325 µM); 0.757 in the assay with Veliparib + Bortezomib (first compound 2 µM); 1.02 in the assay with Veliparib + Linsitinib (first compound 0.02 µM); 0.915 in the assay with Veliparib + Linsitinib (first compound 0.06325 µM); 0.953 with Veliparib + Linsitinib (first compound 0.2 µM). Further, the results for the relative viability in the assay with Veliparib + Linsitinib (first compound 0.6325 µM) and in the assay with Veliparib + Linsitinib (first compound 2 µM) were 0.86 and 0.926, respectively.

Regarding RERF-LC-KJ, the relative viability in the assay with Veliparib + Foretinib (first compound 0.02 µM) was 0.881; in the assay with Veliparib + Foretinib (first compound 0.06325 µM) it was 0.807; with Veliparib + Foretinib (first compound 0.2 µM) it was 0.879; with Veliparib + Foretinib (first compound 0.6325 µM), 0.888; with Veliparib + Foretinib (first compound 2 µM), 0.889; in assay [1] (first compound 0.08 µM), 0.427. Also, the relative viability worked out at 0.494 in assay [1] (first compound 0.253 µM); 0.499 in assay [1] (first compound 0.8 µM); 0.49 in assay [1] (first compound 2.53 µM); 0.388 in assay [1] (first compound 8 µM); 1.07 with Veliparib + Bortezomib (first compound 0.02 µM); 0.928 with Veliparib + Bortezomib (first compound 0.06325 µM). Also, the relative viability in the assay with Veliparib + Bortezomib (first compound 0.2 µM) amounted to 1.15; in the assay with Veliparib + Bortezomib (first compound 0.6325 µM), 1.02; with Veliparib + Bortezomib (first compound 2 µM), 1.05; with Veliparib + Linsitinib (first compound 0.02 µM), 0.894; with Veliparib + Linsitinib (first compound 0.06325 µM), 0.787; with Veliparib + Linsitinib (first compound 0.2 µM) it was 0.823. Further, the relative viability with Veliparib + Linsitinib (first compound 0.6325 µM) was found to be 0.837; with Veliparib + Linsitinib (first compound 2 µM) it was 0.818.

As to SK-LU-1, the relative viability in the assay with Veliparib + Foretinib (first compound 0.02 µM) was 0.874; with Veliparib + Foretinib (first compound 0.06325 µM), 0.756; with Veliparib + Foretinib (first compound 0.2 µM), 0.899; in the assay with Veliparib + Foretinib (first compound 0.6325 µM), 0.644; with Veliparib + Foretinib (first compound 2 µM) it was 0.902; in assay [1] (first compound 0.08 µM) it was 0.279. The relative viability in assay [1] (first compound 0.253 µM) amounted to 0.339; in assay [1] (first compound 0.8 µM) it was 0.325; in assay [1] (first compound 2.53 µM) it was 0.337; in assay [1] (first compound 8 µM), 0.3; with Veliparib + Bortezomib (first compound 0.02 µM), 1.51; with Veliparib + Bortezomib (first compound 0.06325 µM) it was 1.03. Moreover, the relative viability with Veliparib + Bortezomib (first compound 0.2 µM) turned out to be 0.984; with Veliparib + Bortezomib (first compound 0.6325 µM), 1.36; with Veliparib + Bortezomib (first compound 2 µM) it was 0.589; with Veliparib + Linsitinib (first compound 0.02 µM), 1.2; with Veliparib + Linsitinib (first compound 0.06325 µM), 1.01; in the assay with Veliparib + Linsitinib (first compound 0.2 µM), 1.17. Also, the relative viability with Veliparib + Linsitinib (first compound 0.6325 µM) is 1.06; in the assay with Veliparib + Linsitinib (first compound 2 µM) it was 1.17.

As to SW 1573, the relative viability is 0.881 with Veliparib + Foretinib (first compound 0.02 µM); 0.771 in the assay with Veliparib + Foretinib (first compound 0.06325 µM); 0.99 with Veliparib + Foretinib (first compound 0.2 µM); 0.828 in the assay with Veliparib + Foretinib (first compound 0.6325 µM); 0.941 with Veliparib + Foretinib (first compound 2 µM); 0.233 in assay [1] (first compound 0.253 µM). The relative viability was 0.188 in assay [1] (first compound 0.8 µM); 0.206 in assay [1] (first compound 2.53 µM); 0.157 in assay [1] (first compound 8 µM); 0.951 with Veliparib + Bortezomib (first compound 0.02 µM); 0.982 with Veliparib + Bortezomib (first compound 0.06325 µM); 1.07 in the assay with Veliparib + Bortezomib (first compound 0.2 µM). Also, the relative viability in the assay with Veliparib + Bortezomib (first compound 0.6325 µM) came to 0.862; in the assay with Veliparib + Bortezomib (first compound 2 µM), 1.06; in the assay with Veliparib + Linsitinib (first compound 0.02 µM), 0.977; with Veliparib + Linsitinib (first compound 0.06325 µM) it was 0.845; in the assay with Veliparib + Linsitinib (first compound 0.2 µM), 0.819; in the assay with Veliparib + Linsitinib (first compound 0.6325 µM), 0.767. For the same cell line, the relative viability with Veliparib + Linsitinib (first compound 2 µM) was 0.79.

Regarding UMC-11, the relative viability with Veliparib + Foretinib (first compound 0.02 µM) came to 1.29; with Veliparib + Foretinib (first compound 0.06325 µM) it was 0.959; with Veliparib + Foretinib (first compound 0.2 µM) it was 0.998; with Veliparib + Foretinib (first compound 0.6325 µM), 0.948; in the assay with Veliparib + Foretinib (first compound 2 µM) it was 1.02; in assay [1] (first compound 0.253 µM) it was 0.204. Also, the relative viability amounted to 0.215 in assay [1] (first compound 0.8 µM); 0.215 in assay [1] (first compound 2.53 µM); 0.223 in assay [1] (first compound 8 µM); 0.592 with Veliparib + Bortezomib (first compound 0.02 µM); 0.727 with Veliparib + Bortezomib (first compound 0.06325 µM); 0.668 with Veliparib + Bortezomib (first compound 0.2 µM). Further, the relative viability with Veliparib + Bortezomib (first compound 0.6325 µM) was determined as 0.685; with Veliparib + Bortezomib (first compound 2 µM), 0.667; with Veliparib + Linsitinib (first compound 0.02 µM), 1.06; with Veliparib + Linsitinib (first compound 0.06325 µM) it was 1; with Veliparib + Linsitinib (first compound 0.2 µM), 1.08; in the assay with Veliparib + Linsitinib (first compound 0.6325 µM), 0.963. The relative viability with Veliparib + Linsitinib (first compound 2 µM) came out at 0.961.
